Assay results: patent US9439906B2, “Dosing regimen associated with long acting injectable paliperidone esters” (Janssen Pharmaceutica NV, priority 2007, dated 2016)

Tested on: subjects with schizophrenia
Assay: Efficacy in phase 3 placebo-controlled study R092670-PSY-3007 (PANSS, PSP, CGI-S)
Type: in vivo, human
Conditions: for PANSS Total Score End point Mean (SD): LOCF; for PANSS Total Score Change from Baseline Mean (SD): end point LOCF, placebo −2.9; for mean improvement in the PSP score from baseline to end point: placebo 1.7; for subjects who achieved responder status (30% or larger decrease on PANSS total scores): placebo 20.0%
Text: The study included a screening period of up to 7 days and a 13-week double-blind treatment period. The screening period included a washout of disallowed psychotropic medications. […] Subjects who had source documentation of previous exposure to the above medications and were currently taking another antipsychotic regimen continued their current treatment through Day-1. At the beginning of the double-blind treatment period, subjects were randomly assigned in a 1:1:1:1 ratio to 1 of 4 treatment groups: placebo or paliperidone palmitate 25 mg eq., 100 mg eq., or 150 mg eq. Study medication was administered as 4 doses: an initial i.m. injection of 150 mg eq. of paliperidone palmitate or placebo followed by 3 fixed i.m. doses of placebo or paliperidone palmitate [25, 100, or 150 mg eq.] on Days 8, 36, and 64. The initial injection of study medication was given in the deltoid muscle. Subsequent injections were given either in the deltoid or gluteal muscle at the discretion of the investigator. Randomized subjects were to remain in the study for 28 days after the last injection on Day 64 with the end of study visit scheduled for Day 92 during the double-blind period. The entire study, including the screening period, lasted approximately 14 weeks. Samples for pharmacokinetic (PK) evaluation were collected on Day 1, prior to the first injection and on Days 2, 4, 6, 8, 15, 22, 36, 64 and 92. Efficacy and safety were evaluated regularly throughout the study. A pharmacogenomic blood sample (10 mL) was collected from subjects who gave separate written informed consent for this part of the study. Participation in the pharmacogenomic research was optional. Approximately 105 to 115 mL of whole blood was collected during the study. The primary endpoint was the change in the PANSS total score from baseline (i.e., the start of double-blind treatment, Day 1) to the end of the double-blind treatment period (i.e., Day 92 or the last post baseline assessment). The key secondary efficacy endpoint was the change in the Personal and Social Performance Scale (PSP) from baseline to the end of the double-blind treatment period. The other secondary efficacy endpoint was the change in the Clinical Global Impression-Severity (CGI-S) scores from baseline to the end of the double-blind treatment period. Other endpoints included the change from baseline in subject ratings of sleep quality and daytime drowsiness using a visual analogue scale (VAS), the onset of therapeutic effect, responder rate, and the change from baseline to end point in PANSS subscales and […] factors. All randomized subjects who received at least 1 dose of double-blind study drug and had both baseline and at least one post baseline efficacy measurement (PANSS, PSP, or CGI-S) during the double-blind treatment period were included in the intent-to-treat efficacy analyses. […] This procedure is referred to as the Dunnett-Bonferroni-based parallel gatekeeping procedure. The change from baseline in PANSS total score at each visit and at end point was analyzed using an analysis of covariance (ANCOVA) model. The last observation carried forward (LOCF) method was used. The model included treatment and country as factors and baseline PANSS total score as a covariate. Treatment effect was based on the difference in least-squares mean change. […] Treatment-by-country and treatment-by-baseline PANSS total score interactions were explored using the same ANCOVA model as the one for the analysis of the primary endpoint. If either term was statistically significant at the predefined 2-sided significance level of 0.10, further evaluations of the effect of other covariates were to be performed to assess the nature of the interaction and identify possible causes. […] The analysis of the key secondary endpoint, change in PSP score at end point, was conducted by means of an ANCOVA model with treatment and country as factors and the baseline score as the covariate. […]

CCCCCCCCCCCCCCCC(=O)OC1CCCn2c1nc(C)c(CCN1CCC(c3noc4cc(F)ccc34)CC1)c2=O (racemic) [paliperidone palmitate, (±)-3-[2-[4-(6-fluoro-1,2-benzisoxazol-3-yl)-1-piperidinyl]ethyl]-6,7,8,9-tetrahydro-2-methyl-4-oxo-4H-pyrido[1,2-α]pyrimidin-9-yl hexadecanoate]
earliest time point of statistically significant improvement over placebo in change in PANSS total score (25 mg eq. and 150 mg eq. groups): Day 8 | PANSS Total Score change, Diff of LS Means (SE) versus placebo (25 mg eq. group): −5.1 (2.01) | PANSS Total Score End point Mean (SD) (25 mg eq. group (150 mg eq. Day 1, then 25 mg eq. Days 8, 36, 64)): 78.8 (19.88) | PANSS Total Score Change from Baseline Mean (SD) (25 mg eq. group): −8.0 (19.90) | mean improvement in the PSP score from baseline to end point (25 mg eq. group): 2.9 | subjects who achieved responder status (30% or larger decrease on PANSS total scores) (25 mg eq. group): 33.5% | PANSS Total Score change, Diff of LS Means (SE) versus placebo (100 mg eq. group): −8.7 (2.00) | PANSS Total Score End point Mean (SD) (100 mg eq. group (150 mg eq. Day 1, then 100 mg eq. Days 8, 36, 64)): 74.6 (18.06) | PANSS Total Score Change from Baseline Mean (SD) (100 mg eq. group): −11.6 (17.63) | mean improvement in the PSP score from baseline to end point (100 mg eq. group): 6.1 | subjects who achieved responder status (30% or larger decrease on PANSS total scores) (100 mg eq. group): 41.0% | PANSS Total Score change, Diff of LS Means (SE) versus placebo (150 mg eq. group): −9.8 (2.00) | PANSS Total Score End point Mean (SD) (150 mg eq. group (150 mg eq. Days 1, 8, 36, 64)): 75.2 (18.59) | PANSS Total Score Change from Baseline Mean (SD) (150 mg eq. group): −13.2 (18.48) | mean improvement in the PSP score from baseline to end point (150 mg eq. group): 8.3 | subjects who achieved responder status (30% or larger decrease on PANSS total scores) (150 mg eq. group): 40.0% | time point as of which improvement over placebo in change in PANSS total score was statistically significant (all 3 dose groups): Day 22
